Our source for the IC50 values is ChEMBL document CHEMBL5233226 (Eur J Med Chem, 2020).

The target of assay [1] is T1, Plasma kallikrein (Homo sapiens, UniProt P03952). As to the kind of experiment: Inhibition of human plasma kallikrein using H-DPro-Phe-Arg-AFC as substrate.
Assay [2] deals with T2, Kallikrein-1 (Homo sapiens, UniProt P06870). Description: Inhibition of human KLK1 using H-DVal-Leu-Arg-AFC as substrate.
Assay [3] addresses T1, Plasma kallikrein. As to the kind of experiment: Inhibition of human plasma kallikrein using H-D-Pro-Phe-Arg-p-nitroaniline as substrate assessed as inhibition constant.
In assay [4] the target is T1, Plasma kallikrein. Description: Inhibition of plasma kallikrein (unknown origin).
For assay [5], the target named is T1, Plasma kallikrein. As to the kind of experiment: Inhibition of human plasma kallikrein incubated for 1 hrs.
Assay [6] concerns the target T3, Coagulation factor XI (Homo sapiens, UniProt P03951). Description: Inhibition of human fXIa incubated for 1 hrs.
The target in a further assay is Coagulation factor X (Homo sapiens, UniProt P00742). Description: Inhibition of fXa (unknown origin).
Chain of Coagulation factor X (P00742 41-179 limits assumed): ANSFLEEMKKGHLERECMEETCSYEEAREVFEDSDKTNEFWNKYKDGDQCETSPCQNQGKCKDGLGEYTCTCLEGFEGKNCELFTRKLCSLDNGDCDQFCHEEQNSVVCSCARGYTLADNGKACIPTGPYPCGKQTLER
Chain of Coagulation factor X (P00742 235-488 limits assumed): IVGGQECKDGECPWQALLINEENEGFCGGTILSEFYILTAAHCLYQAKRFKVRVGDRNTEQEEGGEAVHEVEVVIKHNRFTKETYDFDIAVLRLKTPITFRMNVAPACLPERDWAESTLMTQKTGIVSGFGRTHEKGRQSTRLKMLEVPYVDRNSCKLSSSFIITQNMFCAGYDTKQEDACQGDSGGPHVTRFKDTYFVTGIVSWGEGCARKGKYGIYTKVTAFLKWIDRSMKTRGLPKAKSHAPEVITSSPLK
The target in assay [7] is T3, Coagulation factor XI. As to the kind of experiment: Inhibition of fXIa (unknown origin).
The next assay addresses T4, Coagulation factor XII (Homo sapiens, UniProt P00748).
T4 sequence (P00748 whole entry): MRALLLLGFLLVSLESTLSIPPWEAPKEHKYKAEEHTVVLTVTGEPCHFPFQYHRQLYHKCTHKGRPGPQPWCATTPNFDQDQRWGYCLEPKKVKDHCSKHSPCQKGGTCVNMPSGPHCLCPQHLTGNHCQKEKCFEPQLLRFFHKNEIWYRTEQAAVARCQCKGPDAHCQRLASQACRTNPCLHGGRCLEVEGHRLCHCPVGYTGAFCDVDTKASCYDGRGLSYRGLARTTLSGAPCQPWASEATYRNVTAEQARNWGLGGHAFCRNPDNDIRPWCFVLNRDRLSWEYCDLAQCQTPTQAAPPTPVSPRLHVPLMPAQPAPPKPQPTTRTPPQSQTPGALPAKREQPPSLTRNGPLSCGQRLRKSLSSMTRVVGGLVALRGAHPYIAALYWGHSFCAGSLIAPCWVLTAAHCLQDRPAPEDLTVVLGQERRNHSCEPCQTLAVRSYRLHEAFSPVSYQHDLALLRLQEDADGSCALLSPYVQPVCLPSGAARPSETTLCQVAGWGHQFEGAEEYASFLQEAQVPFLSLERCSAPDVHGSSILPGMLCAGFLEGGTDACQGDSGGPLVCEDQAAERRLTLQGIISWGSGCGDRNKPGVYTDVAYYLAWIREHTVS
As to the kind of experiment: Inhibition of fXIIa (unknown origin).

The target in assay [8] is T5, Prothrombin (Homo sapiens, UniProt P00734). As to the kind of experiment: Inhibition of thrombin (unknown origin).
Assay [9] addresses T6, Plasminogen (Homo sapiens, UniProt P00747). Description: Inhibition of human plasmin by fluorescence based analysis.
The target in assay [10] is T6, Plasminogen. Description: Inhibition of plasmin (unknown origin).
In assay [11] the target is T5, Prothrombin. As to the kind of experiment: Inhibition of human thrombin by fluorescence based analysis.
The target in assay [12] is T1, Plasma kallikrein. Description: Inhibition of human plasma kallikrein usingPro-Phe-Arg-AMC as substrate incubated for 5 mins. Format: single protein.
The target in assay [13] is Urokinase-type plasminogen activator (Homo sapiens, UniProt P00749). As to the kind of experiment: Inhibition of Urokinase (unknown origin).
The target in a further assay is Trypsin (Homo sapiens, UniProt P07477+P07478+P35030). Description: Inhibition of trypsin (unknown origin). In kind it is protein assay.
The target in assay [14] is T2, Kallikrein-1. Description: Inhibition of KLK1 (unknown origin).
Assay [15] has as its target T3, Coagulation factor XI. Description: Inhibition of human fXIa.
Assay [16] has as its target T2, Kallikrein-1. Description: Inhibition of human KLK1.

The term IC50 denotes the midpoint of a concentration-inhibition curve.

T3 sequence (P03951 19-387 limits assumed): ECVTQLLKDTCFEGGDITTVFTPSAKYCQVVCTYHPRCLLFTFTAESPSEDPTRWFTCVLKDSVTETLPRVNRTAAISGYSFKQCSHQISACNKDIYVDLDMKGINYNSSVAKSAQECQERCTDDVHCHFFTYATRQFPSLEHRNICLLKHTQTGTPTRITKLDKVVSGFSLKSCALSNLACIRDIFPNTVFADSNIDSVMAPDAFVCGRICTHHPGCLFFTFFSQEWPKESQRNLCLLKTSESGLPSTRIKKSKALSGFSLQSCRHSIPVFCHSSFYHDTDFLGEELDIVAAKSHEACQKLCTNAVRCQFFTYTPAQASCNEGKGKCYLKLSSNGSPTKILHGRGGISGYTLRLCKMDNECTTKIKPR
T3 sequence (P03951 388-625 limits assumed): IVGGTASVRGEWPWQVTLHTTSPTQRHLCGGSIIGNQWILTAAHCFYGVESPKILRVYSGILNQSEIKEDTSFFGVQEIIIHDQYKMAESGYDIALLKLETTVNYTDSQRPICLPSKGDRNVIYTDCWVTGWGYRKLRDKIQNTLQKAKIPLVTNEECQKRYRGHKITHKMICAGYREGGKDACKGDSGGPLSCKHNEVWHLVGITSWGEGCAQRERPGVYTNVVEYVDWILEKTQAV
T1 sequence (P03952 20-390 limits assumed): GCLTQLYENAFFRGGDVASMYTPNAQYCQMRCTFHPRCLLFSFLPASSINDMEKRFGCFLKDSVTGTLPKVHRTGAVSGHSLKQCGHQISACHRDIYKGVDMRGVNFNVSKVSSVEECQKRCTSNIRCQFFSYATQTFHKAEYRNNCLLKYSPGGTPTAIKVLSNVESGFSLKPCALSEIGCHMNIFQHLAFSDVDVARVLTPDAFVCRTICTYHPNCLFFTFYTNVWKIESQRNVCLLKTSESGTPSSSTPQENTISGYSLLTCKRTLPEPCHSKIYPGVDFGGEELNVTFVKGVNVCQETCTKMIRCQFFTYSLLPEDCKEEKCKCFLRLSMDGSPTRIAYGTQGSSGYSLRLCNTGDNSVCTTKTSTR
T1 sequence (P03952 391-638 limits assumed): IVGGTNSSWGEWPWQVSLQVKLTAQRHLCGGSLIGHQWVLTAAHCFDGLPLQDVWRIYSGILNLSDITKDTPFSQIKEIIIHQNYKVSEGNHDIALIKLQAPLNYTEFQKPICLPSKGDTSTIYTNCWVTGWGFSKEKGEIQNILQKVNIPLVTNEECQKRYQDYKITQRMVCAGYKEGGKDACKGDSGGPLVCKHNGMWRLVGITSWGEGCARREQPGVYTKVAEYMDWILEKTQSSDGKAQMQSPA
T2 sequence (P06870 whole entry): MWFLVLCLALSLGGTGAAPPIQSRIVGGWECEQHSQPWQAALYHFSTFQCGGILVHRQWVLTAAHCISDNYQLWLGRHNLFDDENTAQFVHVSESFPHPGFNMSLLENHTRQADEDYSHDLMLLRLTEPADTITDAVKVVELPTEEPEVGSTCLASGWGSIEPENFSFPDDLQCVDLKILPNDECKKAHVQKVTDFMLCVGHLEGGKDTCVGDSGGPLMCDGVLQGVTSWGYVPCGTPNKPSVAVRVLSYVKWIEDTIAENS
T6 sequence (P00747 97-580 limits assumed): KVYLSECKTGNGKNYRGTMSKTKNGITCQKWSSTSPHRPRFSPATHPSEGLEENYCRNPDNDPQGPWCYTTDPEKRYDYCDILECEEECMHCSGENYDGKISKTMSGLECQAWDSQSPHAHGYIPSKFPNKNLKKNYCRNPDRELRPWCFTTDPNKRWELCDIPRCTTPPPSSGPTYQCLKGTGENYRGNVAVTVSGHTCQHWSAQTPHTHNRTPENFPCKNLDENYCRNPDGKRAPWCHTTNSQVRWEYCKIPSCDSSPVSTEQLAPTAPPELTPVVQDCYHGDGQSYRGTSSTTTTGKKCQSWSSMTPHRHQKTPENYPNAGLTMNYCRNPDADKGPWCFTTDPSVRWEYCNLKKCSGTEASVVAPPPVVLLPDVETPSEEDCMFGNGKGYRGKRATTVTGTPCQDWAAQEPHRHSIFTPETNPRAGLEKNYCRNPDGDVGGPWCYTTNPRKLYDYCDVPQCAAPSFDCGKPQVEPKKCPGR
T6 sequence (P00747 581-810 limits assumed): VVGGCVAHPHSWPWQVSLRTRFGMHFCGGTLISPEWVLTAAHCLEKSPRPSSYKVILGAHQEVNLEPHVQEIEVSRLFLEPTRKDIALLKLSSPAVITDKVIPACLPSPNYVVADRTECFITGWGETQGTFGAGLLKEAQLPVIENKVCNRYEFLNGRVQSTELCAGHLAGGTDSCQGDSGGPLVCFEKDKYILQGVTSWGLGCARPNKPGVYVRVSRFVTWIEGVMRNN

For `CCOc1ccc(C[C@@H](NC(=O)c2ccccc2)C(=O)N[C@H](C(=O)NCc2ccc(CN)cc2)[C@H](O)c2ccccc2)cc1`, the IC50 against Plasma kallikrein [1] was 20 nM; against Kallikrein-1 [2], 7200 nM. On to `CCOc1ccc(C[C@@H](NC(=O)c2sccc2C)C(=O)N[C@@H](Cc2ccccc2)C(=O)NCc2ccc(CN)cc2)cc1`, for which half-maximal inhibition on Plasma kallikrein [1] (IC50) required 10 nM. In the case of `CCO[C@@H]1C[C@H](C(=O)Nc2cc(C(N)(CCC3CC3)c3ccccn3)ccc2F)N(C(=O)Nc2ccc(Cl)cc2)C1` (stereo partly drawn), on Plasma kallikrein [3], the IC50 is less than 50 nM. `COC(=O)c1ccc(NC(=O)[C@H](CCCCNC(=N)N)NC(=O)C2CCC(CN)CC2)cc1` (stereo partly drawn) displayed an IC50 at Plasma kallikrein [4] of 18000 nM. In the case of `Cc1cc(N)nc(C)c1CNC(=O)c1cnn(Cc2ccc(Cn3cccn3)cc2)c1`, the IC50 worked out at 2.4 nM at Plasma kallikrein [5] and 106000 nM on Coagulation factor XI [6]. Regarding `Nc1nn(Cc2ccc(Cn3ccccc3=O)cc2)cc1C(=O)N[C@H]1CCN(c2cccc(Cl)c2)C1`, it took 4.8 nM to reach half-maximal inhibition against Plasma kallikrein [4] (IC50). On to `CO[C@@H]1C[C@H](C(=O)Nc2cc(C(N)(CCC3CC3)c3ccccn3)ccc2F)N(C(=O)Nc2ccc(Cl)cn2)C1` (stereo partly drawn), for which the IC50 at Plasma kallikrein [3] was less than 50 nM. Still for that read-out and setting: next, `CO[C@@H]1C[C@H](C(=O)Nc2cc(C(N)(CCC3CC3)c3cccc(C#N)c3)ccc2F)N(C(=O)Nc2ccc(Cl)cn2)C1` (stereo partly drawn): less than 50 nM.

On to `N=C(N)c1ccc(CNC(=O)c2cnn(Cc3ccccc3)c2)cc1`, for which the IC50 against Plasma kallikrein [4] was 90 nM; against Coagulation factor X it was more than 10000 nM; on Coagulation factor XI [7] it was more than 10000 nM; against Coagulation factor XII, more than 10000 nM; on Prothrombin [8], more than 10000 nM. As for `CCOc1ccc(C[C@@H](NC(=O)c2ccccc2)C(=O)N[C@@H](Cc2ccccc2)C(=O)NCc2ccc(CN)cc2)cc1`, the half-maximal inhibitory concentration (IC50) at Plasminogen [9] was more than 10000 nM; against Coagulation factor XII, more than 50000 nM; against Prothrombin [8] it was more than 10000 nM; against Plasminogen [10], 22 nM; against Prothrombin [11] it was more than 10000 nM. With `N=C(N)c1cccc(-n2nc(C(F)(F)F)cc2C(=O)Nc2cc(C(NCC3CC3)c3ccccc3)ccc2F)c1` (stereo not drawn), at Plasma kallikrein [3], the IC50 came out at 100 nM. Regarding `NC(CCC1CC1)(c1ccc(F)c(NC(=O)[C@H]2C[C@](O)(c3ccccc3)CN2C(=O)Nc2ccc(Cl)cc2)c1)c1ccccn1` (stereo partly drawn), the half-maximal inhibitory concentration (IC50) at Plasma kallikrein [3] was less than 50 nM. Compound `Fc1cc2[nH]cc(Cl)c2cc1CNc1ncnc2nc(Cc3ccc4ncc(C(F)(F)F)cc4c3)[nH]c12` yielded an IC50 on Plasma kallikrein [12] of less than 100 nM. On to `CO[C@@H]1C[C@H](C(=O)Nc2cc(C(N)(CCC3CC3)c3ccccn3)ccc2F)N(C(=O)Nc2ccc(Cl)cc2)C1` (stereo partly drawn), for which the IC50 on Plasma kallikrein [3] is less than 50 nM. As to `NCC1CCC(C(=O)N[C@@H](Cc2ccccc2)C(=O)Nc2ccc(CC(=O)O)cc2)CC1` (stereo partly drawn), the IC50 at Plasma kallikrein [4] was 1300 nM; in assay [13] it was 350000 nM; against Trypsin, 12000 nM; on Plasminogen [10], 620000 nM. For `Nc1nn(Cc2ccc(Cn3ccccc3=O)cc2)cc1C(=O)NCCOc1cccc(Cl)c1`, the IC50 on Kallikrein-1 [14] and against Coagulation factor XI [7] was 2.9 nM throughout. On to `Cc1cc(N)nc(C)c1CNC(=O)c1cncc(Cc2ccc3ncc(Cl)cc3c2)c1`, for which the IC50 against Plasma kallikrein [12] is less than 100 nM. For `COCc1nn(Cc2ccc(Cn3cc(F)ccc3=O)cc2)cc1C(=O)NCc1nccc(OC)c1F`, the IC50 against Kallikrein-1 [14], at Prothrombin [8], on Trypsin and against Plasminogen [10] was more than 40000 nM throughout.

`COCc1nn(Cc2ccc(Cn3cc(C)cn3)cc2)cc1C(=O)NCc1cnc2[nH]cc(Cl)c2c1`: 8.7 nM corresponded to half-maximal inhibition against Plasma kallikrein [1] (IC50). On to `Cc1nc(N)ccc1CNC(=O)c1ccnc(Cc2ccc(Cn3ccccc3=O)c(S(C)(=O)=O)c2)c1`, for which the IC50 on Plasma kallikrein [12] was less than 100 nM. Take `CC(=O)c1ccc(NC(=O)[C@H](Cc2ccccc2)NC(=O)C2CCC(CN)CC2)cc1` (stereo partly drawn): the IC50 amounted to 850 nM against Plasma kallikrein [4], 58000 nM in [13] and 21000 nM against Plasminogen [10]. In the case of `Cc1cc(C)n(Cc2ccc(Cn3cc(C(=O)NCc4c(C)cc(N)nc4C)nn3)cc2)n1`, the IC50 at Plasma kallikrein [4] is 2.9 nM; on Coagulation factor XI [15] it was more than 10000 nM; at Kallikrein-1 [16], more than 40000 nM.
